Data reported in US9611277B2 (Janssen Pharmaceutica NV, priority 2013, dated 2017).

Legend:
human orexin 1 receptor = human orexin 1 receptor (Homo sapiens, UniProt O43613); assay: Human orexin 1 receptor radioligand binding; details: human orexin 1 receptor; averages of 2-20 runs; read-out: hOX1 Ki
In short: (§1)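 Ki values derive from one-site competition IC50s corrected with the radioligand's predetermined Kd, triplicates per run, averaged over 2-20 runs. Cell homogenates (rat or human OX1R) compete against [^3H]-thiazolyl-oxadiazolyl-pyrrolidine methanone in PBS; 10 μM almorexant sets nonspecific binding; scintillation counting after washing.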

human orexin 2 receptor = human orexin 2 receptor (Homo sapiens (Human), UniProt O43614); assay: Human orexin 2 receptor radioligand binding; details: human orexin 2 receptor; averages of 2-20 runs; read-out: hOX2 Ki
In short: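 Ki derived from one-site competition IC50 using predetermined Kd of [3H]-EMPA, triplicate points, 2-20 runs averaged. Binding done on homogenized HEK293 cells stably expressing human orexin 2 receptor, DMSO ≤0.1%, with 10 μM almorexant defining nonspecific binding; filtered, washed, scintillation counted.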

rat orexin 1 receptor = rat orexin 1 receptor (Rattus norvegicus, UniProt P56718); assay: Rat orexin 1 receptor radioligand binding; details: rat orexin 1 receptor; averages of 2-20 runs; read-out: rOX1 Ki
In short: as §1

Chain of human orexin 2 receptor (O43614 whole entry): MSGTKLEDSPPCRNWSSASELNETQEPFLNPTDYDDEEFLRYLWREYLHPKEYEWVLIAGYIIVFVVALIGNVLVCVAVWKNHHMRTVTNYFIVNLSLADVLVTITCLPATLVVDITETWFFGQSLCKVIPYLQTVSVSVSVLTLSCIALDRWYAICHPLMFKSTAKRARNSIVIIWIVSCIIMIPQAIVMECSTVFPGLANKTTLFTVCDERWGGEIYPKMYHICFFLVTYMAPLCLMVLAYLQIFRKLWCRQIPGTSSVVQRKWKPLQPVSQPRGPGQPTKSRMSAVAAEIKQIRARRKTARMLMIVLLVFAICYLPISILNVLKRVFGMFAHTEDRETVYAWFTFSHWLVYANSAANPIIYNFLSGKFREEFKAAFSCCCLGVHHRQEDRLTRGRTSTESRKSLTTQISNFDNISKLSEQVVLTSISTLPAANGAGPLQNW

| Structure (SMILES) | Ki (human orexin 1 receptor) | Ki (human orexin 2 receptor) | Ki (rat orexin 1 receptor) |
| --- | --- | --- | --- |
| O=C(c1c(F)cccc1-c1ncco1)N1C[C@H]2C[C@@H](Nc3ncc(C(F)(F)F)cn3)[C@@H]1C2 [Example 232, (2-fluoro-6-(oxazol-2-yl)phenyl)((1S,4S,6R)-6-((5-(trifluoromethyl)pyrimidin-2-yl)amino)-2-azabicyclo[2.2.1]heptan-2-yl)methanone] | 25 nM | 1350 nM | 24 nM |
| O=C(c1cc(F)ccc1-n1nccn1)N1C[C@H]2C[C@@H](Nc3ncc(Cl)cn3)[C@@H]1C2 [Example 235, ((1S,4S,6R)-6-((5-chloropyrimidin-2-yl)amino)-2-azabicyclo[2.2.1]heptan-2-yl)(5-fluoro-2-(2H-1,2,3-triazol-2-yl)phenyl)methanone] | 41 nM | 1300 nM | 36 nM |
| O=C(c1cccc(F)c1-c1ncccn1)N1C[C@H]2C[C@@H](Nc3ncc(Cl)cn3)[C@@H]1C2 [Example 236, ((1S,4S,6R)-6-((5-chloropyrimidin-2-yl)amino)-2-azabicyclo[2.2.1]heptan-2-yl)(3-fluoro-2-(pyrimidin-2-yl)phenyl)methanone] | 9 nM | 1020 nM | 10 nM |
| O=C(c1ccc(F)cc1-c1ncccn1)N1C[C@H]2C[C@@H](Nc3ncc(Cl)cn3)[C@@H]1C2 [Example 237, ((1S,4S,6R)-6-((5-chloropyrimidin-2-yl)amino)-2-azabicyclo[2.2.1]heptan-2-yl)(4-fluoro-2-(pyrimidin-2-yl)phenyl)methanone] | 13 nM | 1900 nM | 32 nM |
| O=C(c1c(F)cccc1-c1ncccn1)N1C[C@H]2C[C@@H](Nc3ncc(Cl)cn3)[C@@H]1C2 [Example 239, ((1S,4S,6R)-6-((5-chloropyrimidin-2-yl)amino)-2-azabicyclo[2.2.1]heptan-2-yl)(2-fluoro-6-(pyrimidin-2-yl)phenyl)methanone] | 41 nM | 726 nM | 23 nM |
| O=C(c1ccccc1-c1ncccn1)N1C[C@H]2C[C@@H](Nc3ncc(Cl)cn3)[C@@H]1C2 [Example 240, ((1S,4S,6R)-6-((5-chloropyrimidin-2-yl)amino)-2-azabicyclo[2.2.1]heptan-2-yl)(2-(pyrimidin-2-yl)phenyl)methanone] | 12 nM | 831 nM | 17 nM |
| Cc1ccc(-n2nccn2)c(C(=O)N2C[C@H]3C[C@@H](Nc4ccc(C(F)(F)F)nn4)[C@@H]2C3)n1 [Example 243, (6-methyl-3-(2H-1,2,3-triazol-2-yl)pyridin-2-yl)((1S,4S,6R)-6-((6-(trifluoromethyl)pyridazin-3-yl)amino)-2-azabicyclo[2.2.1]heptan-2-yl)methanone] | 131 nM | 1800 nM | 112 nM |
| O=C(c1ccccc1-n1nccn1)N1C[C@H]2C[C@@H](Nc3ccc(C(F)(F)F)nc3)[C@@H]1C2 [Example 246, (2-(2H-1,2,3-triazol-2-yl)phenyl)((1S,4S,6R)-6-((6-(trifluoromethyl)pyridin-3-yl)amino)-2-azabicyclo[2.2.1]heptan-2-yl)methanone] | 155 nM | 843 nM | 194 nM |
| O=C(c1cccc(F)c1-c1ncccn1)N1C[C@H]2C[C@@H](Nc3ccc(C(F)(F)F)nc3)[C@@H]1C2 [Example 247, (3-fluoro-2-(pyrimidin-2-yl)phenyl)((1S,4S,6R)-6-((6-(trifluoromethyl)pyridin-3-yl)amino)-2-azabicyclo[2.2.1]heptan-2-yl)methanone] | 31 nM | 939 nM | 26 nM |
| O=C(c1c(F)cccc1-c1ncccn1)N1C[C@@H]2CC[C@H]1[C@H](Oc1ccc(C(F)(F)F)cn1)C2 [Example 261, (2-fluoro-6-(pyrimidin-2-yl)phenyl)((1S,4R,6R)-6-((5-(trifluoromethyl)pyridin-2-yl)oxy)-2-azabicyclo[2.2.2]octan-2-yl)methanone] | 9 nM | 400 nM | 21 nM |
| O=C(c1cccc(F)c1-c1ncc(F)cn1)N1C[C@@H]2CC[C@H]1[C@H](Oc1ccc(C(F)(F)F)cn1)C2 [Example 263, (3-fluoro-2-(5-fluoropyrimidin-2-yl)phenyl)((1S,4R,6R)-6-((5-(trifluoromethyl)pyridin-2-yl)oxy)-2-azabicyclo[2.2.2]octan-2-yl)methanone] | 9 nM | 1100 nM | 11 nM |
| Cc1cnc(C(=O)N2C[C@@H]3CC[C@H]2[C@H](Oc2ccc(C(F)(F)F)cn2)C3)c(-c2ncccn2)c1 [Example 264, (5-methyl-3-(pyrimidin-2-yl)pyridin-2-yl)((1S,4R,6R)-6-((5-(trifluoromethyl)pyridin-2-yl)oxy)-2-azabicyclo[2.2.2]octan-2-yl)methanone] | 16 nM | > 10000 nM | 10 nM |
| O=C(c1cccc(F)c1-c1ncccn1)N1C[C@@H]2CC[C@H]1[C@H](Oc1ncc(C(F)(F)F)cc1F)C2 [Example 266, (3-fluoro-2-(pyrimidin-2-yl)phenyl)((1S,4R,6R)-6-((3-fluoro-5-(trifluoromethyl)pyridin-2-yl)oxy)-2-azabicyclo[2.2.2]octan-2-yl)methanone] | 11 nM | 654 nM | 11 nM |
| Cc1ccc(O[C@@H]2C[C@H]3CC[C@@H]2N(C(=O)c2cccc(F)c2-c2ncccn2)C3)nc1 [Example 267, (3-fluoro-2-(pyrimidin-2-yl)phenyl)((1S,4R,6R)-6-((5-methylpyridin-2-yl)oxy)-2-azabicyclo[2.2.2]octan-2-yl)methanone] | 19 nM | 1100 nM | 26 nM |
| O=C(c1ccccc1-n1nccn1)N1C[C@@H]2CC[C@H]1[C@H](Oc1ccc(Br)cn1)C2 [Example 268, (2-(2H-1,2,3-triazol-2-yl)phenyl)((1S,4R,6R)-6-((5-bromopyridin-2-yl)oxy)-2-azabicyclo[2.2.2]octan-2-yl)methanone] | 4 nM | 200 nM | 5 nM |

Further compounds by falling Ki (human orexin 1 receptor), results first:

| Ki (human orexin 1 receptor) | Ki (human orexin 2 receptor) | Ki (rat orexin 1 receptor) | Structure (SMILES) |
| --- | --- | --- | --- |
| 143 nM | 1700 nM | 114 nM | Cc1ccc(-c2ncccn2)c(C(=O)N2C[C@H]3C[C@@H](Nc4ccc(C(F)(F)F)nn4)[C@@H]2C3)n1 [Example 244, (6-methyl-3-(pyrimidin-2-yl)pyridin-2-yl)((1S,4S,6R)-6-((6-(trifluoromethyl)pyridazin-3-yl)amino)-2-azabicyclo[2.2.1]heptan-2-yl)methanone] |
| 113 nM | 2100 nM | 89 nM | O=C(c1ccccc1-n1nccn1)N1C[C@H]2C[C@@H](Nc3ccc(C(F)(F)F)nn3)[C@@H]1C2 [Example 242, (2-(2H-1,2,3-triazol-2-yl)phenyl)((1S,4S,6R)-6-((6-(trifluoromethyl)pyridazin-3-yl)amino)-2-azabicyclo[2.2.1]heptan-2-yl)methanone] |
| 53 nM | 4300 nM | 65 nM | O=C(c1cccc(F)c1-c1ncccn1)N1C[C@H]2C[C@@H](Nc3ccc(C(F)(F)F)nn3)[C@@H]1C2 [Example 245, (3-fluoro-2-(pyrimidin-2-yl)phenyl)((1S,4S,6R)-6-((6-(trifluoromethyl)pyridazin-3-yl)amino)-2-azabicyclo[2.2.1]heptan-2-yl)methanone] |
| 19 nM | 306 nM | 14 nM | Cc1ccc(-c2ncccn2)c(C(=O)N2C[C@@H]3CC[C@H]2[C@H](Oc2ccc(C(F)(F)F)cn2)C3)n1 [Example 265, (6-methyl-3-(pyrimidin-2-yl)pyridin-2-yl)((1S,4R,6R)-6-((5-(trifluoromethyl)pyridin-2-yl)oxy)-2-azabicyclo[2.2.2]octan-2-yl)methanone] |
| 12 nM | 1300 nM | 9 nM | O=C(c1ccccc1-c1ncc(F)cn1)N1C[C@H]2C[C@@H](Nc3ncc(C(F)(F)F)cn3)[C@@H]1C2 [Example 231, (2-(5-fluoropyrimidin-2-yl)phenyl)((1S,4S,6R)-6-((5-(trifluoromethyl)pyrimidin-2-yl)amino)-2-azabicyclo[2.2.1]heptan-2-yl)methanone] |
| 12 nM | 827 nM | 17 nM | O=C(c1cccc(F)c1-n1nccn1)N1C[C@H]2C[C@@H](Nc3ncc(Cl)cn3)[C@@H]1C2 [Example 234, ((1S,4S,6R)-6-((5-chloropyrimidin-2-yl)amino)-2-azabicyclo[2.2.1]heptan-2-yl)(3-fluoro-2-(2H-1,2,3-triazol-2-yl)phenyl)methanone] |
| 11 nM | 724 nM | 9 nM | O=C(c1c(F)cccc1-c1ncccn1)N1C[C@H]2C[C@@H](Nc3ncc(C(F)(F)F)cn3)[C@@H]1C2 [Example 229, (2-fluoro-6-(pyrimidin-2-yl)phenyl)((1S,4S,6R)-6-((5-(trifluoromethyl)pyrimidin-2-yl)amino)-2-azabicyclo[2.2.1]heptan-2-yl)methanone] |
| 10 nM | 294 nM | 11 nM | O=C(c1cc(F)ccc1-c1ncccn1)N1C[C@@H]2CC[C@H]1[C@H](Oc1ccc(C(F)(F)F)cn1)C2 [Example 260, (5-fluoro-2-(pyrimidin-2-yl)phenyl)((1S,4R,6R)-6-((5-(trifluoromethyl)pyridin-2-yl)oxy)-2-azabicyclo[2.2.2]octan-2-yl)methanone] |
| 4 nM | 470 nM | 4 nM | O=C(c1ccccc1-c1ncccn1)N1C[C@H]2C[C@@H](Nc3ncc(C(F)(F)F)cn3)[C@@H]1C2 [Example 230, (2-(pyrimidin-2-yl)phenyl)((1S,4S,6R)-6-((5-(trifluoromethyl)pyrimidin-2-yl)amino)-2-azabicyclo[2.2.1]heptan-2-yl)methanone] |
